# According to ChEMBL document CHEMBL1136657, “Novel ether derivatives of mannopeptimycin glycopeptide antibiotic” (2003):
# Key:
# [1] = test system: Candida albicans; assay: Minimum inhibitory concentration against Candida albicans was determined; assay type: functional
# [2] = test system: Enterococcus faecium; assay: Minimum inhibitory concentration against Enterococcus faecium was determined; Range is […] ug/mL; assay type: functional
# [3] = test system: Enterococcus faecalis; assay: Minimum inhibitory concentration against Enterococcus faecalis was determined; Range is […] ug/mL; assay type: functional
# [4] = Minimum inhibitory concentration against Gram(-) sp. was determined; Range is […] ug/mL; assay type: functional
# [5] = test system: Staphylococcus aureus; assay: Minimum inhibitory concentration against Staphylococcus aureus (MRCNS) was determined; assay type: functional
# [6] = test system: Staphylococcus aureus; assay: Minimum inhibitory concentration against Staphylococcus aureus (MRSA) was determined; Range is 32-64 ug/mL; assay type: functional
# [7] = test system: Staphylococcus aureus; assay: Minimum inhibitory concentration against Staphylococcus aureus (MSCNS) was determined; assay type: functional
# [8] = test system: Streptococcus; assay: Minimum inhibitory concentration against Streptococcus was determined; […]; assay type: functional
# [9] = test system: Staphylococcus aureus; assay: Minimum inhibitory concentration against Staphylococcus aureus (MSSA) was determined; Range is 32-64 ug/mL; assay type: functional
# [10] = test system: Enterococcus faecalis; assay: Minimum inhibitory concentration against Enterococcus faecalis was determined; Range is 8-16 ug/mL; assay type: functional
# [11] = Minimum inhibitory concentration against Gram(-) sp. was determined; assay type: functional
# [12] = test system: Staphylococcus aureus; assay: Minimum inhibitory concentration against Staphylococcus aureus (MSCNS) was determined; Range is 1-8 ug/mL; assay type: functional
# [13] = test system: Staphylococcus aureus; assay: Minimum inhibitory concentration against Staphylococcus aureus (MRSA) was determined; Range is 4-8 ug/mL; assay type: functional
# [14] = test system: Streptococcus; assay: Minimum inhibitory concentration against Streptococcus was determined; Range is <=0.12-2 ug/mL; assay type: functional
# [15] = test system: Staphylococcus aureus; assay: Minimum inhibitory concentration against Staphylococcus aureus (MSSA) was determined; Range is 4-8 ug/mL; assay type: functional
# [16] = test system: Enterococcus faecium; assay: Minimum inhibitory concentration against Enterococcus faecium was determined; Range is 8-16 ug/mL; assay type: functional
# [17] = test system: Enterococcus faecium; assay: Minimum inhibitory concentration against Enterococcus faecium was determined; Range is 2-4 ug/mL; assay type: functional
# [18] = test system: Enterococcus faecalis; assay: Minimum inhibitory concentration against Enterococcus faecalis was determined; Range is 2-4 ug/mL; assay type: functional
# [19] = Minimum inhibitory concentration against Gram(-) sp. was determined; Range is 32->128 ug/mL; assay type: functional
# [20] = test system: Mus musculus; assay: In vivo activity against Staphylococcus aureus smith was determined after iv administration in mice; assay type: functional
# [21] = test system: Staphylococcus aureus; assay: Minimum inhibitory concentration against Staphylococcus aureus smith; assay type: functional
# [22] = test system: Staphylococcus aureus; assay: Minimum inhibitory concentration against Staphylococcus aureus (MRCNS) was determined; Range is 0.25-1 ug/mL; assay type: functional
# [23] = test system: Staphylococcus aureus; assay: Minimum inhibitory concentration against Staphylococcus aureus (MRSA) was determined; Range is […] ug/mL; assay type: functional
# [24] = test system: Staphylococcus aureus; assay: Minimum inhibitory concentration against Staphylococcus aureus (MSCNS) was determined; Range is <=0.12-0.5 ug/mL; assay type: functional
# [25] = test system: Streptococcus; assay: Minimum inhibitory concentration against Streptococcus was determined; assay type: functional
# [26] = test system: Staphylococcus aureus; assay: Minimum inhibitory concentration against Staphylococcus aureus (MSSA) was determined; Range is 1-4 ug/mL; assay type: functional
# [27] = test system: Enterococcus faecalis; assay: Minimum inhibitory concentration against Enterococcus faecalis was determined; assay type: functional
# [28] = test system: Staphylococcus aureus; assay: Minimum inhibitory concentration against Staphylococcus aureus (MRCNS) was determined; Range is 1-4 ug/mL; assay type: functional
# [29] = test system: Staphylococcus aureus; assay: Minimum inhibitory concentration against Staphylococcus aureus (MRSA) was determined; assay type: functional
# [30] = test system: Staphylococcus aureus; assay: Minimum inhibitory concentration against Staphylococcus aureus (MSCNS) was determined; Range is 0.5-1 ug/mL; assay type: functional
# [31] = test system: Staphylococcus aureus; assay: Minimum inhibitory concentration against Staphylococcus aureus (MSSA) was determined; Range is 2-4 ug/mL; assay type: functional
# [32] = test system: Escherichia coli; assay: Minimum inhibitory concentration against Escherichia coli (GC 2203) was determined; assay type: functional
# [33] = test system: Enterococcus faecalis; assay: Minimum inhibitory concentration against Enterococcus faecalis (GC 2242) was determined; assay type: functional
# [34] = test system: Enterococcus faecalis; assay: Minimum inhibitory concentration against Enterococcus faecalis (GC 2691) was determined; assay type: functional
# [35] = test system: Enterococcus avium; assay: Minimum inhibitory concentration against Enterococcus avium (GC 4558) was determined; assay type: functional
# [36] = test system: Enterococcus faecalis; assay: Minimum inhibitory concentration against Enterococcus faecalis (GC 4552) was determined; assay type: functional
# [37] = test system: Enterococcus faecalis; assay: Minimum inhibitory concentration against Enterococcus faecalis (GC 4553) was determined; assay type: functional
# [38] = test system: Enterococcus faecalis; assay: Minimum inhibitory concentration against Enterococcus faecalis (GC 4554) was determined; assay type: functional
# [39] = test system: Escherichia coli; assay: Minimum inhibitory concentration against Escherichia coli (GC 4560) was determined; assay type: functional
# [40] = test system: Escherichia coli; assay: Minimum inhibitory concentration against Escherichia coli (GC 4564) was determined; assay type: functional
# [41] = test system: Enterococcus faecium; assay: Minimum inhibitory concentration against Enterococcus faecium (GC 2243) was determined; assay type: functional
# [42] = test system: Enterococcus faecalis; assay: Minimum inhibitory concentration against Enterococcus faecalis (GC 4555) was determined; assay type: functional
# [43] = test system: Enterococcus faecalis; assay: Minimum inhibitory concentration against Enterococcus faecalis (GC 6189) was determined; assay type: functional
# [44] = test system: Morganella morganii; assay: Minimum inhibitory concentration against Morganella morganii (GC 4381) was determined; assay type: functional
# [45] = test system: Pseudomonas aeruginosa; assay: Minimum inhibitory concentration against Pseudomonas aeruginosa (GC 2214) control was determined; assay type: functional
# [46] = test system: Micrococcus luteus; assay: Minimum inhibitory concentration against Sarcina lutea (GC 4562) was determined; assay type: functional
# [47] = Minimum inhibitory concentration against SCN (GC 4548) was determined; assay type: functional
# [48] = Minimum inhibitory concentration against SCN (GC 4549) was determined; assay type: functional
# [49] = Minimum inhibitory concentration against SCN (GC 4551) was determined; assay type: functional
# [50] = Minimum inhibitory concentration against SCN (GC 6257) was determined; assay type: functional
# [51] = Minimum inhibitory concentration against SCN (GC 4547) was determined; assay type: functional
# [52] = test system: Streptococcus pyogenes; assay: Minimum inhibitory concentration against Streptococcus pyogenes (GC 4563) was determined; assay type: functional
# [53] = test system: Streptococcus agalactiae; assay: Minimum inhibitory concentration against Streptococcus agalactiae (GC4564) was determined; assay type: functional
# [54] = test system: Streptococcus pneumoniae; assay: Minimum inhibitory concentration against Streptococcus pneumoniae (GC 1894) was determined; assay type: functional
# [55] = test system: Streptococcus pneumoniae; assay: Minimum inhibitory concentration against Streptococcus pneumoniae (GC 4565) was determined; assay type: functional
# [56] = test system: Streptococcus pneumoniae; assay: Minimum inhibitory concentration against Streptococcus pneumoniae (GC 6242) was determined; assay type: functional
# [57] = test system: Streptococcus; assay: Minimum inhibitory concentration against Streptococcus was determined; Range is <=0.12-0.5 ug/mL; assay type: functional
# [58] = test system: Enterococcus faecalis; assay: Minimum inhibitory concentration against Enterococcus faecalis (GC 3059) was determined; assay type: functional
# [59] = test system: Candida albicans; assay: Minimum inhibitory concentration against Candida albicans GC 3066 was determined; assay type: functional
# [60] = test system: Enterococcus faecalis; assay: microbe, parasite or virus in culture
# [61] = test system: Staphylococcus haemolyticus; assay: Minimum inhibitory concentration against Staphylococcus haemolyticus (GC 4546) was determined
# [62] = Mus musculus, iv, read-out: ED50
smiles,measurement,setting,value
C[C@@H](c1ccccc1)[C@@H]1NC(=O)CNC(=O)[C@H](CO)NC(=O)[C@@H]([C@@H](O)[C@@H]2CN=C(N)N2[C@H]2O[C@H](O)[C@@H](O)[C@H](O)[C@@H]2O)NC(=O)[C@H]([C@@H](O)[C@@H]2CN=C(N)N2)NC(=O)[C@@H](Cc2ccc(O[C@H]3O[C@H](CO)[C@@H](O[C@H]4O[C@H](CO)[C@@H](O)[C@H](O)[C@@H]4OCc4ccc(OCc5ccccc5)cc4)[C@H](O)[C@@H]3O)cc2)NC1=O,MIC,[1],128 µg/mL
same,MIC,[2],16 µg/mL
same,MIC,[3],64 µg/mL
same,MIC,[4],> 128 µg/mL
same,MIC,[5],32 µg/mL
same,MIC,[6],32 µg/mL
same,MIC,[7],16 µg/mL
same,MIC,[8],2 µg/mL
same,MIC,[9],32 µg/mL
C[C@@H](c1ccccc1)[C@@H]1NC(=O)CNC(=O)[C@H](CO)NC(=O)[C@@H]([C@@H](O)[C@@H]2CN=C(N)N2[C@H]2O[C@H](O)[C@@H](O)[C@H](O)[C@@H]2O)NC(=O)[C@H]([C@@H](O)[C@@H]2CN=C(N)N2)NC(=O)[C@@H](Cc2ccc(O[C@H]3O[C@H](CO)[C@@H](O[C@H]4O[C@H](CO)[C@@H](O)[C@H](OCc5ccc(OCc6ccccc6)cc5)[C@@H]4O)[C@H](O)[C@@H]3O)cc2)NC1=O,MIC,[1],> 128 µg/mL
same,MIC,[10],8 µg/mL
same,MIC,[11],> 128 µg/mL
same,MIC,[5],4 µg/mL
same,MIC,[12],1 µg/mL
same,MIC,[13],4 µg/mL
same,MIC,[14],≤ 0.12 µg/mL
same,MIC,[15],4 µg/mL
same,MIC,[16],8 µg/mL
C[C@@H](c1ccccc1)[C@@H]1NC(=O)CNC(=O)[C@H](CO)NC(=O)[C@@H]([C@@H](O)[C@@H]2CN=C(N)N2[C@H]2O[C@H](O)[C@@H](O)[C@H](O)[C@@H]2O)NC(=O)[C@H]([C@@H](O)[C@@H]2CN=C(N)N2)NC(=O)[C@@H](Cc2ccc(O[C@H]3O[C@H](CO)[C@@H](O[C@H]4O[C@H](CO)[C@@H](OCc5ccc(OCc6ccccc6)cc5)[C@H](O)[C@@H]4O)[C@H](O)[C@@H]3O)cc2)NC1=O,MIC,[1],> 128 µg/mL
same,MIC,[17],2 µg/mL
same,MIC,[18],2 µg/mL
same,MIC,[19],32 µg/mL
same,ED50,[20]; [62],0.06 mg/kg
same,MIC,[21],1 µg/mL
same,MIC,[22],0.25 µg/mL
same,MIC,[23],1 µg/mL
same,MIC,[24],≤ 0.12 µg/mL
same,MIC,[25],< 0.12 µg/mL
same,MIC,[26],1 µg/mL
C[C@@H](c1ccccc1)[C@@H]1NC(=O)CNC(=O)[C@H](CO)NC(=O)[C@@H]([C@@H](O)[C@@H]2CN=C(N)N2[C@H]2O[C@H](O)[C@@H](O)[C@H](O)[C@@H]2O)NC(=O)[C@H]([C@@H](O)[C@@H]2CN=C(N)N2)NC(=O)[C@@H](Cc2ccc(O[C@H]3O[C@H](CO)[C@@H](OC4O[C@H](COCc5ccc(OCc6ccccc6)cc5)[C@@H](O)[C@H](O)[C@@H]4O)[C@H](O)[C@@H]3O)cc2)NC1=O (some centres undefined),MIC,[1],> 128 µg/mL
same,MIC,[17],2 µg/mL
same,MIC,[27],4 µg/mL
same,MIC,[11],> 128 µg/mL
same,ED50,[20]; [62],0.25 mg/kg
same,MIC,[21],2 µg/mL
same,MIC,[28],1 µg/mL
same,MIC,[29],4 µg/mL
same,MIC,[30],0.5 µg/mL
same,MIC,[25],≤ 0.12 µg/mL
same,MIC,[31],2 µg/mL
CN[C@H](CC(C)C)C(=O)N[C@H]1C(=O)N[C@@H](CC(N)=O)C(=O)N[C@H]2C(=O)N[C@H]3C(=O)N[C@H](C(=O)N[C@H](C(=O)O)c4cc(O)cc(O)c4-c4cc3ccc4O)[C@H](O)c3ccc(c(Cl)c3)Oc3cc2cc(c3O[C@@H]2O[C@H](CO)[C@@H](O)[C@H](O)[C@H]2O[C@H]2C[C@](C)(N)[C@H](O)[C@H](C)O2)Oc2ccc(cc2Cl)[C@H]1O [VANCOMYCIN],MIC,[1],> 128 µg/mL
same,MIC,[32],> 64 µg/mL
same,MIC,[33],> 64 µg/mL
same,MIC,[34],1 µg/mL
same,MIC,[35],> 64 µg/mL
same,MIC,[36],1 µg/mL
same,MIC,[37],0.5 µg/mL
same,MIC,[38],0.5 µg/mL
same,MIC,[39],0.5 µg/mL
same,MIC,[40],> 64 µg/mL
same,MIC,[41],> 64 µg/mL
same,MIC,[42],2 µg/mL
same,MIC,[43],> 64 µg/mL
same,MIC,[11],> 128 µg/mL
same,ED50,[20],1 mg/kg
same,ED50,[20]; [62],0.5 mg/kg
same,MIC,[44],> 64 µg/mL
same,MIC,[45],> 64 µg/mL
same,MIC,[46],1 µg/mL
same,MIC,[47],2 µg/mL
same,MIC,[48],0.5 µg/mL
same,MIC,[49],2 µg/mL
same,MIC,[50],0.5 µg/mL
same,MIC,[51],2 µg/mL
same,MIC,[52],0.25 µg/mL
same,MIC,[53],0.5 µg/mL
same,MIC,[54],0.12 µg/mL
same,MIC,[55],0.25 µg/mL
same,MIC,[56],0.5 µg/mL
same,MIC,[57],≤ 0.12 µg/mL
same,MIC,[58],> 64 µg/mL
same,MIC,[59],> 64 µg/mL
same,MIC,[60],0.5 µg/mL
same,MIC,[61],1 µg/mL
